Laboratory results: patent publication US6756382B2, “Amide substituted imidazoquinolines” (3M Innovative Properties Company, priority 1999, dated 2004)
Values belong to the compound of their own block, whether it stands above or below them.

Assays:
interferon (α) [1] = experiment: Cytokine induction in human cells: interferon secreted by PBMCs, bioassay (A549 cells challenged with encephalomyocarditis virus); format: cell-based; settings: PBMC, incubated 18 to 24 hours, interferon determined using the bioassay method, read-out: Lowest Effective Concentration (μM) Interferon
Description: An in vitro human blood cell system was used to assess cytokine induction by compounds of the invention. Activity is based on the measurement of interferon and tumor necrosis factor (α) (IFN and TNF, respectively) secreted into culture media as described by Testerman et. al. In “Cytokine Induction by the Immunomodulators Imiquimod and S-27609”, Journal of Leukocyte Biology, 58, 365-372 (September, 1995).
Whole blood is collected by venipuncture into EDTA vacutainer tubes from healthy human donors. Peripheral blood mononuclear cells (PBMCs) are separated from whole blood by density gradient centrifugation using Histopaque®-1077 (Sigma Chemicals, St. Louis, Mo.). The PBMCs are suspended at 3-4×10^6 cells/mL in RPMI 1640 medium containing 10% fetal bovine serum, 2 mM L-glutamine and 1% penicillin/streptomycin solution (RPMI complete). The PBMC suspension is added to 48 well flat bottom sterile tissue culture plates (Costar, Cambridge, Mass. or Becton Dickinson Labware, Lincoln Park, N.J.) containing an equal volume of RPMI complete media containing test compound.
The compounds are solubilized in dimethyl sulfoxide (DMSO). The DMSO concentration should not exceed a final concentration of 1% for addition to the culture wells.
The solution of test compound is added at 60 μM to the first well containing RPMI complete and serial (three fold or ten fold) dilutions are made. The PBMC suspension is then added to the wells in an equal volume, bringing the test compound concentrations to the desired range. The final concentration of PBMC suspension is 1.5-2×10^6 cells/mL. The plates are covered with sterile plastic lids, mixed gently and then incubated for 18 to 24 hours at 37° C. in a 5% carbon dioxide atmosphere.
Following incubation the plates are centrifuged for 5-10 minutes at 1000 rpm (˜200×g) at 4° C. The cell culture supernatant is removed with a sterile polypropylene pipet and transferred to sterile polypropylene tubes. Samples are maintained at −30 to −70° C. until analysis. The samples are analyzed for interferon (α) by either ELISA or bioassay and for tumor necrosis factor (α) by ELISA.
Interferon is determined by bioassay using A549 human lung carcinoma cells challenged with encephalomyocarditis. The details of the bioassay method have been described by G. L. Brennan and L. H. Kronenberg in “Automated Bioassay of Interferons in Micro-test Plates”, Biotechniques, June/July, 78, 1983, incorporated herein by reference. Briefly stated the method is as follows: A549 cells are incubated with dilutions of samples or a standard interferon at 37° C. for 24 hours. The incubated cells are then infected with an inoculum of encephalomyocarditis virus. The infected cells are incubated for an additional 24 hours at 37° C. before evaluating for viral cytopathic effect. The viral cytopathic effect is quantified by staining with crystal violet followed by visual scoring of the plates. Results are expressed as alpha reference units/mL based on the value obtained for NIH Human Leukocyte IFN standard.
The table below lists the lowest concentration found to induce interferon and the lowest concentration found to induce tumor necrosis factor for each compound. […] Unless otherwise indicated, the interferon biosynthesis was determined by ELISA.

[2] = test system: tumor necrosis factor (α); experiment: Cytokine induction in human cells: tumor necrosis factor (α) secreted by PBMCs, ELISA; format: cell-based; settings: PBMC, incubated 18 to 24 hours, TNF determined by ELISA, read-out: Lowest Effective Concentration (μM) Tumor Necrosis Factor
How it was run: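 Human donor PBMCs at final 1.5-2×10^6 cells/mL in RPMI with 10% FBS incubated 18 to 24 h at 37° C. with serially diluted compound, DMSO at most 1% final. Supernatant TNF-α measured by ELISA; value is the lowest concentration inducing TNF.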

interferon (α) [3] = experiment: Cytokine induction in human cells: interferon secreted by PBMCs, ELISA; format: cell-based; settings: PBMC, incubated 18 to 24 hours, interferon determined by ELISA, read-out: Lowest Effective Concentration (μM) Interferon
How it was run: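 Human donor PBMCs at 1.5-2×10^6 cells/mL final in RPMI with 10% FBS, exposed to serially diluted compound (≤1% DMSO) for 18–24 h at 37 °C, 5% CO2. Supernatant interferon (α) measured by ELISA; value is lowest concentration inducing interferon.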

Structure (SMILES): Nc1nc2ccccc2c2c1ncn2CCCCNC(=O)CCC1CCCC1 [Example 83]
- minimal effective concentration (interferon (α) [1]): 1.11 µM

Structure (SMILES): COc1ccc(C(=O)NCCCCn2cnc3c(N)nc4ccccc4c32)cc1 [Example 74]
- minimal effective concentration [2]: 10 µM
- minimal effective concentration (interferon (α) [1]): 0.37 µM

Structure (SMILES): Nc1nc2ccccc2c2c1ncn2CCCCNC(=O)c1ccc(F)cc1 [Example 72]
- minimal effective concentration [2]: 10 µM
- minimal effective concentration (interferon (α) [1]): 0.37 µM

Structure (SMILES): Nc1nc2ccccc2c2c1ncn2CCCCNC(=O)c1c(F)c(F)c(F)c(F)c1F [Example 68]
- minimal effective concentration [2]: 10 µM
- minimal effective concentration (interferon (α) [1]): 1.11 µM

Structure (SMILES): Cc1ccc(C(=O)NCCCCn2cnc3c(N)nc4ccccc4c32)cc1 [Example 77]
- minimal effective concentration [2]: 10 µM
- minimal effective concentration (interferon (α) [1]): 1.11 µM

Structure (SMILES): Nc1nc2ccccc2c2c1ncn2CCCCNC(=O)c1ccccc1Cl [Example 69]
- minimal effective concentration [2]: 1.11 µM
- minimal effective concentration (interferon (α) [1]): 0.12 µM

Structure (SMILES): CC(C)(C)c1ccc(C(=O)NCCCCn2cnc3c(N)nc4ccccc4c32)cc1 [Example 76]
- minimal effective concentration (interferon (α) [1]): 3.33 µM

Structure (SMILES): Nc1nc2ccccc2c2c1ncn2CCCCNC(=O)C1CC1 [Example 81]
- minimal effective concentration [2]: 30 µM
- minimal effective concentration (interferon (α) [1]): 3.33 µM

Structure (SMILES): Nc1nc2ccccc2c2c1ncn2CCCCNC(=O)Cc1ccccc1 [Example 78]
- minimal effective concentration [2]: 10 µM
- minimal effective concentration (interferon (α) [1]): 0.12 µM

Structure (SMILES): Nc1nc2ccccc2c2c1ncn2CCCCNC(=O)C1CCCCC1 [Example 84]
- minimal effective concentration [2]: 10 µM
- minimal effective concentration (interferon (α) [1]): 0.12 µM

Structure (SMILES): Nc1nc2ccccc2c2c1ncn2CCCCNC(=O)/C=C/c1ccccc1 [Example 79]
- minimal effective concentration [2]: > 30 µM
- minimal effective concentration (interferon (α) [1]): 0.37 µM

Structure (SMILES): CC(C)(C)CC(=O)NCCCCn1cnc2c(N)nc3ccccc3c21 [Example 80]
- minimal effective concentration [2]: 10 µM
- minimal effective concentration (interferon (α) [1]): 1.11 µM

Structure (SMILES): Nc1nc2ccccc2c2c1ncn2CCCCNC(=O)c1ccc(Cl)cc1 [Example 73]
- minimal effective concentration [2]: 10 µM
- minimal effective concentration (interferon (α) [1]): 0.37 µM

Structure (SMILES): Nc1nc2ccccc2c2c1ncn2CCCCNC(=O)c1c(Cl)cccc1Cl [Example 71]
- minimal effective concentration [2]: 3.33 µM
- minimal effective concentration (interferon (α) [1]): 0.12 µM

- melting point: 73 to 98 °C
Structure (SMILES): Nc1nc2ccccc2c2c1ncn2CCCCNC(=O)COc1ccc(C(=O)c2ccccc2)cc1 [Example 18, N^1-[4-(4-Amino-1H-imidazo[4,5-c]quinolin-1-yl)butyl]-2-(4-benzoylphenoxy)acetamide]
- minimal effective concentration [2]: > 30 µM
- minimal effective concentration (interferon (α) [3]): 3.33 µM

- melting point: 240 to 300 °C (dec.)
Structure (SMILES): Nc1nc2ccccc2c2c1ncn2CCCCNC(=O)c1ccc(CCl)cc1 [Example 7, N^1-[4-(4-Amino-1H-imidazo[4,5-c]quinolin-1-yl)butyl]-4-(chloromethyl)benzamide]
- minimal effective concentration [2]: > 30 µM
- minimal effective concentration (interferon (α) [3]): 1.11 µM

- melting point: 159 to 161 °C
Structure (SMILES): Nc1nc2ccccc2c2c1ncn2CCCCNC(=O)c1ccc(C(=O)c2ccccc2)cc1 [Example 20, N^1-[4-(4-Amino-1H-imidazo[4,5-c]quinolin-1-yl)butyl]-4-benzoylbenzamide]
- minimal effective concentration [2]: > 30 µM
- minimal effective concentration (interferon (α) [3]): 3.33 µM

Structure (SMILES): Nc1nc2ccccc2c2c1ncn2CCCCNC(=O)C1CCCC1 [Example 82]
- minimal effective concentration [2]: 10 µM
- minimal effective concentration (interferon (α) [1]): 0.12 µM

Structure (SMILES): Nc1nc2ccccc2c2c1ncn2CCCCNC(=O)c1ccc(C(F)(F)F)cc1 [Example 75]
- minimal effective concentration (interferon (α) [1]): 1.11 µM

- melting point: 192 to 194 °C
Structure (SMILES): Nc1nc2ccccc2c2c1nc(CCCOc1ccccc1)n2CCCNC(=O)c1ccccc1 [Example 194, N-{3-[4-amino-2-(3-phenoxypropyl)-1H-imidazo[4,5-c]quinolin-1-yl]propyl}benzamide]
- minimal effective concentration [2]: 10 µM
- minimal effective concentration (interferon (α) [3]): > 30 µM

- melting point: 175 to 177 °C
Structure (SMILES): COc1ccc(C(=O)NCCCCn2cnc3c(N)nc4ccccc4c32)c(OC)n1 [Example 44, N^3-[4-(4-Amino-1H-imidazo[4,5-c]quinolin-1-yl)butyl]-2,6-dimethoxynicotnamide]
- minimal effective concentration [2]: > 30 µM
- minimal effective concentration (interferon (α) [3]): 1.11 µM
